In series [1] the test system is Escherichia coli. In words: Antibacterial activity against Escherichia coli BW25113 assessed as reduction in bacterial growth incubated for 20 hrs by resazurin microtitre assay. The format is functional. In general terms: Resazurin is reduced to fluorescent resorufin, in cell work by metabolically active cells.
The target of series [2] is T1, Multidrug efflux pump subunit AcrB (Escherichia coli (strain K12)) (UniProt P31224).
T1 sequence (whole entry): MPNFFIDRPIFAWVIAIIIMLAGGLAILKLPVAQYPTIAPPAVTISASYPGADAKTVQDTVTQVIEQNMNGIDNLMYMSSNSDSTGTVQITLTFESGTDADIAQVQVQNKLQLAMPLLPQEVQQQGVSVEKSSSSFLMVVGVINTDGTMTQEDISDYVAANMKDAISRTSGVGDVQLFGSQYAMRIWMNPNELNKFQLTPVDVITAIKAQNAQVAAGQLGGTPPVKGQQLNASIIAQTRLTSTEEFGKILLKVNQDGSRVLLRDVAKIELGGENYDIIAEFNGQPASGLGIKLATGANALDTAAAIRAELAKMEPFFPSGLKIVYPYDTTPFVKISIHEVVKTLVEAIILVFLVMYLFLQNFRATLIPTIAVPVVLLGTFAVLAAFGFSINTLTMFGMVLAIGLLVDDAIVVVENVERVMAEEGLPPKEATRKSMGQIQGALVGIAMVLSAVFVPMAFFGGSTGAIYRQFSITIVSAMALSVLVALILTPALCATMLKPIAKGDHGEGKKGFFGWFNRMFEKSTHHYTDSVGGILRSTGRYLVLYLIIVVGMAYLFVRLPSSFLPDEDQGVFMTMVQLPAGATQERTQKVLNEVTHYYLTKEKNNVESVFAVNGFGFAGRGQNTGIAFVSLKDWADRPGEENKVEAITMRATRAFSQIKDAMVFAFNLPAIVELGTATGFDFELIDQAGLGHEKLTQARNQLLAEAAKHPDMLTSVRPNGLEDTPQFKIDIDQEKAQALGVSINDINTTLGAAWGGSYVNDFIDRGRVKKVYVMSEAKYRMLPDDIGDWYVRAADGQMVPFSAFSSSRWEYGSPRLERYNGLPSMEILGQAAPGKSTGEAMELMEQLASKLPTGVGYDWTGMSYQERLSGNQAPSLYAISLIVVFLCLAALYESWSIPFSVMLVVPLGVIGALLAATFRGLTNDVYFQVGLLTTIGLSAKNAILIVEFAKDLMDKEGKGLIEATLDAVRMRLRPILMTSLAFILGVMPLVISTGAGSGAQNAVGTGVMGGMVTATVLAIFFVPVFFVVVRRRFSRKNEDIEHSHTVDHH
Put plainly: Inhibition of AcrB in Escherichia coli BW25113 assessed as potentiation of pyridomycin-induced antibacterial activity incubated for 20 hrs by resazurin microtitre assay.

A short description of series [3]: Solubility of compound in DMSO at > 125 uM. The format is physicochemical.
Series [4] deals with Escherichia coli. In words: Potentiation of oxacillin induced antibacterial activity in Escherichia coli BW25113 assessed as fold change in oxacillin MIC at 100 uM incubated for 20 hrs by resazurin microtitre assay. Format: functional.
Series [5] deals with Escherichia coli. Put plainly: Potentiation of novobiocin induced antibacterial activity in Escherichia coli BW25113 assessed as novobiocin MIC at 100 uM incubated for 20 hrs by resazurin microtitre assay (reference value: 80 ug/ml). The format is functional.
The subject of series [6] is Escherichia coli. In words: Potentiation of erythromycin induced antibacterial activity in Escherichia coli BW25113 assessed as erythromycin MIC at 100 uM incubated for 20 hrs by resazurin microtitre assay (reference value: 128 ug/ml). The format is functional.
Series [7] deals with Escherichia coli. Put plainly: Potentiation of chloramphenicol induced antibacterial activity in Escherichia coli BW25113 assessed as fold change in chloramphenicol MIC at 100 uM incubated for 20 hrs by resazurin microtitre assay. Format: functional.
For series [8], the system named is Escherichia coli. In words: Potentiation of fusidic acid induced antibacterial activity in Escherichia coli BW25113 assessed as fusidic acid MIC at 100 uM incubated for 20 hrs by resazurin microtitre assay (Rvb > 128 ug/ml). The format is functional.
For series [9], the system named is Escherichia coli. In words: Potentiation of ciprofloxacin induced antibacterial activity in Escherichia coli BW25113 assessed as fold change in ciprofloxacin MIC at 100 uM incubated for 20 hrs by resazurin microtitre assay. The format is functional.
In series [10] the test system is Escherichia coli. In words: Potentiation of novobiocin induced antibacterial activity in Escherichia coli BW25113 assessed as fold change in novobiocin MIC at 100 uM incubated for 20 hrs by resazurin microtitre assay. Format: functional.
The subject of series [11] is Escherichia coli. Put plainly: Selectivity ratio of EC90 for inhibition of AcrB Glu947Gln mutant in Escherichia coli BW25113 to inhibition of AcrB in Escherichia coli BW25113 incubated for 20 hrs by resazurin microtitre assay.
For series [12], the system named is Escherichia coli. In words: Inhibition of AcrB Glu947Gln mutant in Escherichia coli BW25113 assessed as potentiation of pyridomycin-induced antibacterial activity incubated for 20 hrs by resazurin microtitre assay.
In series [13] the test system is Escherichia coli. In words: Potentiation of fusidic acid induced antibacterial activity in Escherichia coli BW25113 assessed as fold change in fusidic acid MIC at 100 uM incubated for 20 hrs by resazurin microtitre assay. The format is functional.
In series [14] the test system is Escherichia coli. In words: Potentiation of linezolid induced antibacterial activity in Escherichia coli BW25113 assessed as linezolid MIC at 100 uM incubated for 20 hrs by resazurin microtitre assay (Rvb > 128 ug/ml). The format is functional.
For series [15], the system named is Escherichia coli. In words: Potentiation of ciprofloxacin induced antibacterial activity in Escherichia coli BW25113 assessed as ciprofloxacin MIC at 100 uM incubated for 20 hrs by resazurin microtitre assay (reference value: 0.01 ug/ml). Format: functional.
The test system of series [16] is Escherichia coli. In words: Inhibition of AcrB Ser450Pro mutant in Escherichia coli BW25113 assessed as potentiation of pyridomycin-induced antibacterial activity incubated for 20 hrs by resazurin microtitre assay.
A short description of series [17]: Solubility of compound in PBS at pH 7.4 incubated for 24 hrs by LC-MS/MS analysis. The format is physicochemical.
Series [18] has as its system Escherichia coli. Put plainly: Potentiation of erythromycin induced antibacterial activity in Escherichia coli BW25113 assessed as fold change in erythromycin MIC at 100 uM incubated for 20 hrs by resazurin microtitre assay. Format: functional.
For series [19], the system named is Escherichia coli. Put plainly: Potentiation of oxacillin induced antibacterial activity in Escherichia coli BW25113 assessed as oxacillin MIC at 100 uM incubated for 20 hrs by resazurin microtitre assay (Rvb > 128 ug/ml). Format: functional.
In series [20] the test system is Escherichia coli. Put plainly: Selectivity ratio of EC90 for inhibition of AcrB Asp951Asn mutant in Escherichia coli BW25113 to inhibition of AcrB in Escherichia coli BW25113 incubated for 20 hrs by resazurin microtitre assay.
The target in series [21] is T1, Multidrug efflux pump subunit AcrB (Escherichia coli (strain K12)). Put plainly: Potency index, ratio of BDM88832 EC90 to test compound EC90 for inhibition of AcrAB-TolC in Escherichia coli BW25113.
Series [22] deals with Escherichia coli. Put plainly: Potentiation of chloramphenicol induced antibacterial activity in Escherichia coli BW25113 assessed as chloramphenicol MIC at 100 uM incubated for 20 hrs by resazurin microtitre assay (reference value: 8 ug/ml). The format is functional.
In series [23] the test system is Escherichia coli. In words: Potentiation of linezolid induced antibacterial activity in Escherichia coli BW25113 assessed as fold change in linezolid MIC at 100 uM incubated for 20 hrs by resazurin microtitre assay. The format is functional.
The test system of series [24] is Escherichia coli. In words: Potentiation of piperacillin induced antibacterial activity in Escherichia coli BW25113 assessed as piperacillin MIC at 100 uM incubated for 20 hrs by resazurin microtitre assay (reference value: 4 ug/ml). The format is functional.
In series [25] the test system is Escherichia coli. In words: Inhibition of AcrB Asp951Asn mutant in Escherichia coli BW25113 assessed as potentiation of pyridomycin-induced antibacterial activity incubated for 20 hrs by resazurin microtitre assay.
The test system of series [26] is Escherichia coli. Put plainly: Inhibition of AcrB Ala446Pro mutant in Escherichia coli BW25113 assessed as potentiation of pyridomycin-induced antibacterial activity incubated for 20 hrs by resazurin microtitre assay.
Series [27] deals with Escherichia coli. In words: Potentiation of piperacillin induced antibacterial activity in Escherichia coli BW25113 assessed as fold change in piperacillin MIC at 100 uM incubated for 20 hrs by resazurin microtitre assay. Format: functional.
Series [28] is described as follows: Stability in CD-1 mouse liver microsomes assessed as intrinsic clearance at 1 uM measured up to 40 mins by LC-MS/MS analysis. Format: ADME, Microsome. The following applies: read-out: CLH. On the technique in general: Liver microsomes are a subcellular fraction often used to study metabolism.
The nature of series [29]: Stability in mouse plasma assessed as half life at 10 uM measured up to 360 mins by LC-MS/MS analysis. The format is ADME, cell-free.
Series [30] in a line: Stability in CD-1 mouse liver microsomes assessed as half life at 1 uM measured up to 40 mins by LC-MS/MS analysis. Format: ADME, Microsome.
Series [31] deals with T1, Multidrug efflux pump subunit AcrB (Escherichia coli (strain K12)). In words: Inhibition of AcrB in Escherichia coli BW25113 assessed as potentiation of pyridomycin-induced antibacterial activity incubated for 5 hrs by resazurin reduction assay.
Series [32] relates to Escherichia coli. Put plainly: Antibacterial activity against Escherichia coli BW25113 assessed as reduction in bacterial growth incubated for 5 hrs by resazurin reduction assay. Format: functional.
Series [33] concerns Escherichia coli. Put plainly: Antibacterial activity against Escherichia coli BW25113 harboring acrB deletion mutant assessed as reduction in bacterial growth incubated for 20 hrs by resazurin microtitre assay. The format is functional.

Converted amounts (≈) assume the structure as drawn.

Consider `Cc1noc(-c2cnc(N3CCNCC3)c(Cl)c2)n1.Cl`, for which the MIC in series [1] is above 125 µM. Moreover, in [2], the EC90 was above 125 µM. For the same compound, in [3], the solubility entry is “Soluble”.
As for `Cl.Cl.NCc1cccc(OC(=O)c2cnc(N3CCNCC3)c(Cl)c2)c1`, the “fold change (FC)” value was above 26 in [4]; 4 in series [7]; above 2 in series [9]; 64 in series [10]; above 26 in [13]; 32 in series [18]. For the same compound, the “fold change (FC)” value in series [23] is recorded as above 16; in [27], above 8. The MIC95 is 1.2 µg/mL in series [5]; 4 µg/mL in series [6]; 5 µg/mL in series [8]; 8 µg/mL in [14]; below 5 ng/mL in series [15]; 5 µg/mL in [19]. The MIC95 in [22] is 2 µg/mL; in [24], below 0.5 µg/mL. Further, in series [1], the MIC was above 250 µM. Moreover, the EC90 was 0.6 µM in series [2]; above 62 µM in [12]; above 62 µM in series [16]; 62 µM in [25]; above 62 µM in [26]. Besides, the figures for the Ratio in series [11], in [20] and in series [21] were above 103, 103 and 20, respectively. For the same compound, the solubility at 24 h in series [17] was determined as 180 µM.
Regarding `Cl.Cl.NCCc1nc(-c2cnc(N3CCNCC3)c(Cl)c2)no1`, the “fold change (FC)” value is given as 3 in series [4]; 4 in series [7]; above 2 in [9]; 8 in series [10]; 4 in series [13]; 8 in [18]. Moreover, the figures for the “fold change (FC)” value in [23] and in series [27] were 8 and above 8, respectively. The MIC95 was 10 µg/mL in series [5]; 16 µg/mL in [6]; 32 µg/mL in series [8]; 16 µg/mL in [14]; below 5 ng/mL in series [15]; 40 µg/mL in series [19]. Besides, the MIC95 in series [22] was 2 µg/mL; in [24] it was below 0.5 µg/mL. Besides, the MIC in series [1] was above 250 µM. The EC90 is 8 µM in [2]; above 250 µM in [12]; above 250 µM in series [16]; above 250 µM in series [25]; above 250 µM in series [26]. Further, the Ratio in series [11] and in [20] was above 31 in each case. In [28], the microsomal CLint at 1 µM was below 2 µL/min/mg. Further, the half-life at 10 µM in [29] was above 360 min. The same compound yielded a solubility at 24 h in series [17] above 200 µM. The half-life at 1 µM in series [30] was above 40 min.
On to `FC(F)(F)c1cnc(N2CCNCC2)c(Cl)c1`, for which the MIC in series [1] was above 250 µM. Besides, in [31], the EC90 was found to be 62 µM. In series [32], the MIC90 was above 500 µM.
As to `CC/C(C)=C1\OC(=O)[C@H](C)[C@H](O)[C@H](Cc2cccnc2)NC(=O)[C@@H](NC(=O)c2ncccc2O)[C@@H](C)OC1=O` [PYRIDOMYCIN], the minimal inhibitory concentration (MIC) was 12.5 µg/mL in [1] and 0.78 µg/mL (≈ 1.44 µM) in series [33].
Take `Clc1cc(I)cnc1N1CCNCC1`: the MIC in series [1] was above 250 µM. Besides, the microsomal CLint at 1 µM in [28] was 241 µL/min/mg. Also, the half-life at 10 µM in series [29] was above 360 min. The same compound displayed a solubility at 24 h in [17] above 200 µM. Moreover, the EC90 in series [31] came out at 12 µM. The half-life at 1 µM in [30] is 9 min.

A word on the MIC: it is the lowest concentration found to suppress growth. In general, EC90 refers to the concentration needed for an effect of 90%. A word on the solubility: it is the dissolved amount per volume that the medium holds. Lower therefore signals little dissolved substance. In general, half-life refers to the time needed for the level to fall by half in the phase considered. Broadly, the MIC90 is an inhibitory concentration at the 90% level, which refers to growth in some studies and to a panel of isolates in others.

(Values after ChEMBL document CHEMBL5634076, “Optimization of pyridylpiperazine-based inhibitors of the Escherichia coli AcrAB-TolC efflux pump” (Eur J Med Chem, 2023).)
